Assay [1] deals with mouse intestinal epithelial cells. In words: Effect of short chain fatty acids on proliferation and differentiation on planar crypt arrays. In kind it is cell-based. The settings on record: day 3-4 (DM/EM); for ALP activity relative to the control / normalized area of EdU+ cells compared to control without short chain fatty acid: 24 mM acetate, 6 mM propionate or 1 mM butyrate in DM luminal medium; for ALP activity relative to the control: ALP+ area normalized to Hoechst 33342 area; for normalized area of EdU+ cells compared to control without short chain fatty acid: EdU+ area normalized to Hoechst 33342 area.
Experimental: EM was replaced with fresh EM every 2 days. The cells were sub-cultured every 3-5 days by degrading collagen with collagenase and dissociating the cells with 0.5 mM EDTA into clumps of cells. […] When placing cells onto the surface of the microdevice, the cell suspension was diluted 1 to 2 in EM and overlaid onto the microdevice surface. The cells were cultured for 2 days with EM placed into the luminal and basal reservoirs of the Transwell cassette. On day 2, the luminal and basal media were changed as described in Table 3, below, and the cells incubated for a day. On day 3, the luminal and basal media were replaced with fresh media (identical to that from day 2 replacement) and the cells incubated for another day. In some experiments, the medium in the luminal compartment was replaced differentiation medium (DM, see Table 2) which is similar to EM but lacking in key growth factors required to support intestinal stem cells.
Cells in the S phase of the cell cycle were incubated with a pulse of 5-ethynyl-2′-deoxyuridine (EdU) pulse following the manufacturers' protocols (Click-iT EdU Alexa Fluor 647 Imaging kit, C10340, Thermo Fisher Scientific, Waltham, Massachusetts, United States of America). EdU is a nucleotide analog incorporated into DNA as it is replicated in S phase. In brief, EdU (10 μM) was added to the luminal and basal media and the cells were incubated for 3 h at 37° C. The cells then were washed with PBS and fixed with 4% paraformaldehyde in PBS for 15 min and permeabilized with 0.5% Triton-X for 20 min at 25° C. EdU incorporated into cellular DNA was visualized by reaction with Alexa 647 via click chemistry following the manufacturer's protocol (Click-iT EdU Alexa Fluor 647 Imaging kit, C10340, Thermo Fisher Scientific, Waltham, Massachusetts, United States of America).
Cell monolayers were assayed for alkaline phosphatase (ALP) activity on day 4 of culture by incubation with ALP substrate mixture (Vector Red AP substrate kit, SK-5100, Vector Laboratories Inc., Burlingame, California, United States of America) in Tris buffer (pH 8.4) for 30 min at 37° C. Then cells were washed with PBS, fixed and permeabilized as described above. To label cell DNA, Hoechst 33342 (2 μg/mL, B2261, Sigma Aldrich, St. Louis, Missouri, United States of America) was incubated with cells (1 h, 25° C.).
The […] ® insert (Corning, Inc., Corning, New York, United States of America) with cell layer from the microdevice was placed into a 12-well plate under PBS and imaged using a FLUOVIEW® FV3000® confocal microscope (Olympus Corporation, Tokyo, Japan) confocal microscope (10×, objective, numerical aperture of 0.4). Alexa 647, Vector-Red-ALP, and Hoechst 33342 were excited with a 640, 561, and 405 nm laser, respectively and the fluorescence emission was collected at 650-750 nm, 570-590 nm, and 430-470 nm, respectively. The images were analyzed with the Fiji software package. […] For all experiments, the numbers of sample sizes were estimated using a statistical power analysis based on the data from Wang et al. (Cellular and Molecular Gastroenterology and Hepatology, 2017, 4, 165-182) measuring EdU+ and ALP activities under varying conditions (α=0.05, β=0.85) using G*Power. […] A one-way ANOVA analysis was used for all statistical analyses of data obtained from the fluorescence microscopy images.

In assay [2] the test system is intestinal tumor cell lines. The note with it: cited from earlier work.

The structures appear in SMILES notation.

Turning to `CC(=O)O` [acetate], in assay [1], the “ALP activity relative to the control” value is recorded as “significantly decreased” and the “normalized area of EdU+ cells compared to control without short chain fatty acid” value was “significantly increased”.
For `CCCC(=O)O` [butyrate], the “decrease of the number of Hoechst 33342+ cells per crypt” value in assay [1] (1 mM butyrate in DM luminal medium, vs control crypts, p<0.001) is on record as “about 17%”.
Turning to `CCC(=O)O` [propionate], in assay [1], the “ALP activity relative to the control” value was “significantly increased” and the “normalized area of EdU+ cells compared to control without short chain fatty acid” value is “significantly decreased”. In addition, in assay [2], the “proliferation in intestinal tumor cell lines” value is listed as “suppress proliferation”.
